Assay results as given in US9309242B2, “Substituted pyrido[2,3-b]pyrazines as FGFR kinase inhibitors” (priority 2011, dated 2016).
Like-named read-outs stand apart in the source and are kept apart here.

Columns and labels:
[1] = tested on: Ba/F3-FGFR1-transfected cells; assay: Ba/F3-FGFR1 (plus IL3) cellular proliferation assay, counterscreen with 10 ng/ml murine IL3; format: cell-based; details: plus IL3 (10 ng/ml murine IL3, counterscreen); read-out: BAF3-FGFR1 (PLUS IL3) pIC50 (converted)
Outline: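 Ba/F3-FGFR1 cells (20000/well) in RPMI-1640 with 10% FBS exposed to compound for 24 h at 37° C., 5% CO2, then Alamar Blue (resazurin) added for 4 h; fluorescence read at ex 540/em 590 nm. Counterscreen run identically with 10 ng/ml murine IL3.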

[2] = biological target: FGFR1 (h) (Homo sapiens, UniProt P11362); assay: FGFR1 (enzymatic assay), TR-FRET; format: biochemical; details: read-out: FGFR 1 pIC50 (converted)
[3] = tested on: Ba/F3-KDR-transfected cells; assay: Ba/F3-KDR (plus IL3) cellular proliferation assay, counterscreen with 10 ng/ml murine IL3; format: cell-based; details: plus IL3 (10 ng/ml murine IL3, counterscreen); read-out: BAF3-KDR (PLUS IL3) pIC50 (converted)
Outline: (§1)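 Ba/F3-KDR cells (20000 per well) in phenol red-free RPMI-1640 with 10% FBS were exposed to compound for 24 hours at 37° C, 5% CO2. Alamar Blue (resazurin) was then added for 4 hours, and fluorescence was read at ex. 540 nm/em. 590 nm.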

[4] = biological target: FGFR4 (h) (Homo sapiens, UniProt P22455); assay: FGFR4 (enzymatic assay), TR-FRET; format: biochemical; details: FGFR 4 pIC50, enzymatic assay
[5] = biological target: T1, Ba/F3-FGFR1-transfected cells (Homo sapiens, UniProt P11362); assay: Ba/F3-FGFR1 (minus IL3) cellular proliferation assay, Alamar Blue; format: cell-based
T1 construct: BAF3-FGFR1 (MIN IL3) pIC50; other: minus IL3
Outline: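 Ba/F3 cells transfected with FGFR1 (20000 cells/well) were plated onto compound in phenol red-free RPMI-1640 with 10% FBS, 2 mM L-glutamine and gentamycin, then kept 24 h at 37 °C, 5% CO2. Alamar Blue (resazurin) was added for 4 h and fluorescence read at ex 540/em 590 nm.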

[6] = biological target: FGFR2 (h) (Homo sapiens, UniProt P21802); assay: FGFR2 (enzymatic assay), TR-FRET; format: biochemical; details: enzymatic assay, read-out: FGFR 2 pIC50 (converted)
Outline: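 Kinase reaction in 50 mM HEPES pH 7.5 with 6 mM MnCl2, 1 mM DTT, 0.1 mM Na3VO4 and 0.01% Triton-X-100 contained FGFR2 (h) at 150 ng/ml. Biotinylated Flt3 peptide (500 nM) served as substrate with 0.4 μM ATP, compound added in 1% DMSO final.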

[7] = biological target: T2, Ba/F3-FGFR3-transfected cells (Homo sapiens, UniProt P22607); assay: Ba/F3-FGFR3 (minus IL3) cellular proliferation assay, Alamar Blue; format: cell-based
T2 construct: BAF3-FGFR3 (MIN IL3) pIC50; other: minus IL3
Outline: (§2)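 Ba/F3 cells transfected with FGFR3 were seeded at 20000 cells/well in phenol red-free RPMI-1640 with 10% FBS over compound in DMSO and kept 24 hours at 37° C, 5% CO2. Alamar Blue (resazurin) was then added for 4 hours and fluorescence read at ex 540/em 590 nm. The counterscreen repeated this with 10 ng/ml murine IL3.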

[8] = tested on: Ba/F3-FGFR3-transfected cells; assay: Ba/F3-FGFR3 (plus IL3) cellular proliferation assay, counterscreen with 10 ng/ml murine IL3; format: cell-based; details: plus IL3 (10 ng/ml murine IL3, counterscreen); read-out: BAF3-FGFR3 (PLUS IL3) pIC50 (converted)
Outline: as §2

[9] = biological target: T3, Ba/F3-KDR-transfected cells (Homo sapiens, UniProt P35968); assay: Ba/F3-KDR (minus IL3) cellular proliferation assay, Alamar Blue; format: cell-based
T3 construct: BAF3-KDR (MIN IL3) pIC50; other: minus IL3
Outline: as §1

[10] = average values if tested multiple times

T1 sequence (P11362 whole entry, change not shown): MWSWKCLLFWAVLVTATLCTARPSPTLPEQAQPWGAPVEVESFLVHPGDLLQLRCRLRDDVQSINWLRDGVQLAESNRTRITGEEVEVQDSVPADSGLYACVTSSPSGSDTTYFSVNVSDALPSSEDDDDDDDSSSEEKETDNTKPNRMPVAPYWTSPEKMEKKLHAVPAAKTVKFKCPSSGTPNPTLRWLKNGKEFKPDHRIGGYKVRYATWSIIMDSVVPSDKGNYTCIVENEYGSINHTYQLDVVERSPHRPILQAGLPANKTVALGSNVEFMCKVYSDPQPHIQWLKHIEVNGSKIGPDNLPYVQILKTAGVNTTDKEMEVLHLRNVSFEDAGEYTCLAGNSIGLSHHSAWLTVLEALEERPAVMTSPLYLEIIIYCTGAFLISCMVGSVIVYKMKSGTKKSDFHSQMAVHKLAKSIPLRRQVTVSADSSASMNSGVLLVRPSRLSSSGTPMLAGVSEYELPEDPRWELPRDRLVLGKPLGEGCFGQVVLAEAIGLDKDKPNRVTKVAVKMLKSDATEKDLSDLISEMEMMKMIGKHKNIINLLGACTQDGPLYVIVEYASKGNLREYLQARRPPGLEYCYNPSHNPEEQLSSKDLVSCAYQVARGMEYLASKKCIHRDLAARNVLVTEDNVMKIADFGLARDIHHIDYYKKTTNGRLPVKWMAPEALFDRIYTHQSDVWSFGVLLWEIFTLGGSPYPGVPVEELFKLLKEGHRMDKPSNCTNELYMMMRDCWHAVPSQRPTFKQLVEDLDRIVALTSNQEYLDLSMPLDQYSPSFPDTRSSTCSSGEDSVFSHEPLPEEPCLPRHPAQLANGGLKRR
Chain of FGFR1 (h) (P11362 22-822): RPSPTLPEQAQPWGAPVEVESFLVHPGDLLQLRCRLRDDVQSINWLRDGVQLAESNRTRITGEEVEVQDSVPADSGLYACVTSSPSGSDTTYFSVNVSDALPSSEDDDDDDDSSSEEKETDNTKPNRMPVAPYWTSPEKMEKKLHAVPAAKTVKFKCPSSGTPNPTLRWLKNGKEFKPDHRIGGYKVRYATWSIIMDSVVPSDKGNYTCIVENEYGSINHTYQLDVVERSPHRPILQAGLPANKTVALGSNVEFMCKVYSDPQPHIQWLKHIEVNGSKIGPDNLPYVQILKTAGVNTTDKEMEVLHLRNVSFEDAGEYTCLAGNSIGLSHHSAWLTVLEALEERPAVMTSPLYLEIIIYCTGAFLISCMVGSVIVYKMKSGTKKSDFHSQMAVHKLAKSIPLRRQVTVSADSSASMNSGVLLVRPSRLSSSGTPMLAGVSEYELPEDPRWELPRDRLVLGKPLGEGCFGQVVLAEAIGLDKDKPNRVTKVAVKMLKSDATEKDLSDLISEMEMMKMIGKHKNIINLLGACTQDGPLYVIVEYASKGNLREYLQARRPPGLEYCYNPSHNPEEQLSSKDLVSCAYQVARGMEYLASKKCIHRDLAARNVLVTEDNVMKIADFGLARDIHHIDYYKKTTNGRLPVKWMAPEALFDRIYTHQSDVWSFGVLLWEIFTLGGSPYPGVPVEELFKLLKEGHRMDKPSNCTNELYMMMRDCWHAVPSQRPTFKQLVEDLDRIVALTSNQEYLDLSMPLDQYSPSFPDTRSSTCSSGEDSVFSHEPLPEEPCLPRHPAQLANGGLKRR
T2 sequence (P22607 whole entry, change not shown): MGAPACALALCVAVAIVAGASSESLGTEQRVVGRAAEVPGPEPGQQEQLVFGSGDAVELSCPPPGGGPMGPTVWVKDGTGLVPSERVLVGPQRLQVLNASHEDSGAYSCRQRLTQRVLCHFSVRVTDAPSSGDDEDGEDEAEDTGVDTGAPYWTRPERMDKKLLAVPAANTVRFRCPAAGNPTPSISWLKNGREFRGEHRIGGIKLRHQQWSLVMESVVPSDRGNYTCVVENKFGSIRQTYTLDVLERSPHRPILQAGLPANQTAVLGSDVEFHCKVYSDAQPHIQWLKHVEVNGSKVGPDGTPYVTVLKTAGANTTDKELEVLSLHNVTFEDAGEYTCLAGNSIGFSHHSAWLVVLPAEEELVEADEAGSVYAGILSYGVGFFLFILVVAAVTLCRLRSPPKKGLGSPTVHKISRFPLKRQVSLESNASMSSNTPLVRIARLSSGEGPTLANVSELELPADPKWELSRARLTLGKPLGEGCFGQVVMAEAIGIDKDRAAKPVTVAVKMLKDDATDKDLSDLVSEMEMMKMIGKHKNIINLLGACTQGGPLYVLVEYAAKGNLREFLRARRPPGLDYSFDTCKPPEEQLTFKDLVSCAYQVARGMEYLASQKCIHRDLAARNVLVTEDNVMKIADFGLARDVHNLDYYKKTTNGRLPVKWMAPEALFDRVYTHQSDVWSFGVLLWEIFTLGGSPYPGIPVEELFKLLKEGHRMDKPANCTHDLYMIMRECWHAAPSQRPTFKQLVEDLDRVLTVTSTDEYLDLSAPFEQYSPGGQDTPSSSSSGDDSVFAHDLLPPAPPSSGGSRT
T3 sequence (P35968 whole entry, change not shown): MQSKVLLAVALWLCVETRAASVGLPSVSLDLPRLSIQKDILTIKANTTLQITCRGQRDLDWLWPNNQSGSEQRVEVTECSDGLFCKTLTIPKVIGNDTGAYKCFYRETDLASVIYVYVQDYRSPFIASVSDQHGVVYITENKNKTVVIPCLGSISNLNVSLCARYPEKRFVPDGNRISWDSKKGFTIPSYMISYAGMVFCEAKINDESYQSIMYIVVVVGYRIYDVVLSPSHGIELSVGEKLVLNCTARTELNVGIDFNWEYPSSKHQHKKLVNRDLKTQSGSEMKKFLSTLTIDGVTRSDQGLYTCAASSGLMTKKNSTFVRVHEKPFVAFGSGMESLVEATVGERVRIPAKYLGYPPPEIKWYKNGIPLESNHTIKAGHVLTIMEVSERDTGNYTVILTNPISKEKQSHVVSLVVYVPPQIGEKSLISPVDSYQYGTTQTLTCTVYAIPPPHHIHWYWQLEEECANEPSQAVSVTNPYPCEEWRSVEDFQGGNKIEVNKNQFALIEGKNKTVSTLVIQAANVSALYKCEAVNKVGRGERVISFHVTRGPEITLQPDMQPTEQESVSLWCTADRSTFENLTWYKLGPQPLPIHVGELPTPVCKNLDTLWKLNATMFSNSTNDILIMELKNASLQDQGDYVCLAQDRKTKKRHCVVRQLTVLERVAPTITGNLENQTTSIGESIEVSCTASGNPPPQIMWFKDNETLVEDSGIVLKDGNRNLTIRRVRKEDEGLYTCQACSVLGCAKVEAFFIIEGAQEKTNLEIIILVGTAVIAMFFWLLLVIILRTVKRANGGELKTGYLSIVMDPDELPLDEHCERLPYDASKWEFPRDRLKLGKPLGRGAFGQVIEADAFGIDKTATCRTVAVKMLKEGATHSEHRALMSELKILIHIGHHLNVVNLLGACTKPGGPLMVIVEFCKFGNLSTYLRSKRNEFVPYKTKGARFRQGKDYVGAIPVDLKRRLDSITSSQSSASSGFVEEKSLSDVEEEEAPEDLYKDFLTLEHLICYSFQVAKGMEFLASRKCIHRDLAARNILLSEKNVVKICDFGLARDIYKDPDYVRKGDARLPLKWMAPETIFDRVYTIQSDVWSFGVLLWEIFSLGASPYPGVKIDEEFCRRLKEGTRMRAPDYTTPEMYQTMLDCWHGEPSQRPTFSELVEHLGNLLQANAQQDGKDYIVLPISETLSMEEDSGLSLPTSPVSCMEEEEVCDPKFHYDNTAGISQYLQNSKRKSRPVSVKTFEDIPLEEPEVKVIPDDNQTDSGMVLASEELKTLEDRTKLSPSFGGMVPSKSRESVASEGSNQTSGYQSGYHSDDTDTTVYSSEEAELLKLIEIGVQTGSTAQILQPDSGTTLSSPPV
Chain of FGFR2 (h) (P21802 22-821): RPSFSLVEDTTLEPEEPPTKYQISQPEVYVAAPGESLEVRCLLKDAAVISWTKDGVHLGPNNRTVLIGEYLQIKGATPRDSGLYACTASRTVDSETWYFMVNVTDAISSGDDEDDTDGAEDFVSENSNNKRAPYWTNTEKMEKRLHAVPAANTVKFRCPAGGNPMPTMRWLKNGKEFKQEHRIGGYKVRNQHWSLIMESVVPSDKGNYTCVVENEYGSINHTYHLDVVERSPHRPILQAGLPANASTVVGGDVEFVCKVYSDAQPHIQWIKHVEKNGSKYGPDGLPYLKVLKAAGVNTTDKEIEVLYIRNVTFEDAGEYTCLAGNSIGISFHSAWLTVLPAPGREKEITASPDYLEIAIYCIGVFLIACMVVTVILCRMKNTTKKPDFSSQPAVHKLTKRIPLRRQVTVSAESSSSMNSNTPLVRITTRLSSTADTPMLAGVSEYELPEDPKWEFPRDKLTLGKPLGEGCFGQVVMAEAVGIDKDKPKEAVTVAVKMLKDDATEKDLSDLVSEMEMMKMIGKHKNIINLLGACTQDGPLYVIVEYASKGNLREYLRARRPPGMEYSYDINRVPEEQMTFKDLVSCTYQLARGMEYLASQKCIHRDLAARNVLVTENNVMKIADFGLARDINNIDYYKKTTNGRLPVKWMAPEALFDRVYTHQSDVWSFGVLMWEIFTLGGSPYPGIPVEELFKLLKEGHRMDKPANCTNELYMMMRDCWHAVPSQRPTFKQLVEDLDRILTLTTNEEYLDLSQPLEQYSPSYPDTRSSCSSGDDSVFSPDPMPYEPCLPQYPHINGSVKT

Compound | IC50 [1] [nM] | IC50 [2, 10] [nM] | IC50 [3] [nM] | IC50 [4, 10] [nM] | BAF3-FGFR1 (MIN IL3) pIC50 [5] | IC50 [6, 10] [nM] | BAF3-FGFR3 (MIN IL3) pIC50 [7] | IC50 [8] [nM] | BAF3-KDR (MIN IL3) pIC50 [9] | IC50 [2] [nM] | IC50 [4] [nM] | IC50 [6] [nM]
COc1cc(/N=c2\ccc3ncc(-c4cnn(C)c4)nc3n2Cc2ccnn2C)c(F)c(OC)c1 [Compound 114] | > 10000 | 0.933 | > 10000 | 0.891 | 7.63 | 1.62 | ~7.66 | > 10000 | ~7.05 |  |  | 
COc1cc(/N=c2\ccc3ncc(-c4cnn(C)c4)nc3n2Cc2cc[nH]n2)c(F)c(OC)c1 [Compound 115] | > 10000 | 0.708 | > 10000 | 0.933 | ~8.17 | 1.58 | 7.82 | > 10000 | 6.58 |  |  | 
COc1cc(OC)c(F)c(N(Cc2cc[nH]n2)c2ccc3ncc(-c4cnn(C)c4)nc3n2)c1 [Compound 118] | > 10000 | 0.759 | > 10000 | 0.776 | 8.00 | 1.32 | ~8.04 | > 10000 | 6.60 |  |  | 
COc1cc(/N=c2\ccc3ncc(-c4cnn(C)c4)nc3n2CCCN2CCCC2=O)c(F)c(OC)c1 [Compound 119] | > 3980 |  | > 3980 |  | ~7.92 |  | ~8.07 | > 3980 | ~6.52 | 1.41 | 1 | 1.86
COc1cc(OC)c(F)c(N(CCCN2CCCC2=O)c2ccc3ncc(-c4cnn(C)c4)nc3n2)c1 [Compound 120] | > 10000 |  | > 10000 |  | 7.27 |  | 7.16 | > 10000 | 6.10 | 4.17 | 3.24 | 3.02
CNCCN(c1ccc2ncc(-c3cnn(C)c3)nc2n1)c1c(F)c(O)cc(OC)c1F [Compound 122] | > 10000 |  | > 10000 |  | 6.74 |  | 6.09 | > 10000 | <5 | 2.82 | 9.55 | 3.31
COc1cc(/N=c2\ccc3ncc(-c4cnn(C)c4)nc3n2CC2COC(=O)N2)c(F)c(OC)c1 (stereo not drawn) [Compound 123] | > 10000 |  | > 10000 |  | 7.21 |  | 7.16 | > 10000 | 5.53 | 1.35 | 2.75 | 1.26
COc1cc(OC)c(F)c(N(CC2COC(=O)N2)c2ccc3ncc(-c4cnn(C)c4)nc3n2)c1 (stereo not drawn) [Compound 124] | > 10000 |  | > 10000 |  | ~7.16 |  | ~7.16 | > 10000 | 5.49 | 3.09 | 4.27 | 2.75
COc1cc(OC)c(F)c(N(Cc2cn[nH]c2)c2ccc3ncc(-c4cnn(C)c4)nc3n2)c1 [Compound 125] | > 10000 |  | > 10000 |  | 7.61 |  | ~7.57 | > 10000 | 6.21 | 0.851 | 1.58 | 0.794
COc1cc(OC)c(F)c(N(Cc2ccn(C)n2)c2ccc3ncc(-c4cnn(C)c4)nc3n2)c1 [Compound 128] | > 10000 |  | > 10000 |  | 8.10 |  | 8.03 | > 10000 | 6.34 | 1.32 | 1.29 | 1.55
